This is an account of results in patent publication US8569448B2, “NMDAR biomarkers for diagnosis and treatment of traumatic brain injury and other disorders” (Grace Laboratories, LLC, priority 2006, dated 2013).

The subject of assay [1] is patients who had suffered an acute ischemic stroke. Conditions: sublingual 2.0 g/day, five consecutive days, acute ischemic stroke within six hours.
The test system of assay [2] is isolated giant neurons of mollusk Planorbarius Corneus. Briefly: physiological functions in isolated giant neurons of mollusk. Format: cell-based. An excerpt: Several double derivatives of glutamic acid {E-(CH2)n-E} or containing amino acids (glycine, lysine, histidine, and/or arginine, {E-amino acid-E}) including chelates (Fe2+, Mg2+, or Zn2+) were synthesized and used to study their physiological functions in isolated giant neurons of mollusk Planorbarius Corneus. […] The effect of these substances depended on the length of the amino acid chain (CH2)n between the residues of glutamic acid.
The Hill coefficient (nH) is a central parameter in the study of ligand-protein interactions, which measures the degree of co-operativity between subunits that bind the ligand in multi-subunit proteins. The most common usage of nH is as an estimate of the minimal number of interacting binding sites in positively co-operating systems. The Hill coefficient for tested compounds was about 0.75.

Consider `NCC(=O)O` [glycine], for which the “decrease of 30 day mortality compared to placebo” value in assay [1] was determined as 20%. Consider `N[C@@H](CCC(=O)O)C(=O)O` [glutamate], for which the “neuronal response evoked by application” value in assay [2] (isolated giant neurons, application/injection of substance) is listed as “biphasic responses”. Consider “glutamic acid-lysine Zn2+-arginin-glutamic acid”, for which the “effect on neurons depending on chain length between glutamic acid residues” value in assay [2] (comparison among double derivatives) is recorded as “maximal effect”.
